Experimental data as given in US20060111305A1, “Metabolites of certain [1,4]diazepino[6,7,1-ij]quinoline derivatives and methods of preparation and use thereof” (Wyeth, priority 2004, published 2006).

Key:
[1] = Rat fecal excretion and metabolite profiles after single oral 5 mg/kg [14C]DCDQ; assay type: in vivo, Sprague-Dawley rats; details: male rats
Experimental: At sacrifice, blood samples were collected by cardiac puncture into tubes containing EDTA as the anticoagulant and placing them on ice. Aliquots of 50 μL were removed for combustion and determination of radioactivity content. Plasma was immediately obtained from the remaining blood by centrifugation at 4° C. Brains were excised after perfusion with 50 mL of chilled sterile saline. Urine samples were collected on dry ice at intervals of 0-8 and 8-24 hour post-dosing. Feces were collected at intervals of 0-8 and 8-24 hr post-dosing at room temperature and were homogenized as described previously. The biological specimens and aliquots of the dosing solution at pre- and post-dose were stored at approximately −70° C. until analyzed.
Brain and fecal samples were weighed and homogenized in water at volume-to-weight ratios of about 1:1 and 5:1, respectively. Blood aliquots (50 μL), brain homogenates (0.1 gram) and fecal homogenates (0.2 gram) were placed on Combusto-cones with Combusto-pads and combusted. A model 307 Tri-Carb Sample Oxidizer, equipped with an Oximate-80 Robotic Automatic Sampler (Perkin Elmer), was used for combustion. The liberated ^14CO2 was trapped with Carbo-Sorb E carbon dioxide absorber, mixed with PermaFluor® E+ liquid scintillation cocktail, and counted in a Tri-Carb Model 3100 TR/LL liquid scintillation counter (Perkin Elmer). The oxidation efficiency of the oxidizer was 98.2%.
Fecal homogenates were analyzed for metabolite profiles. Aliquots of 1 gram of fecal homogenates were mixed with 2 mL methanol, placed on ice for about 10 minutes and centrifuged. The supernatant was transferred to a clean tube. The residue was extracted three times with 2 mL of a water:methanol (3:7) mixture. The supernatants of each sample were combined, evaporated to about 1 mL, and centrifuged. Extraction efficiency was determined by analyzing aliquots of 10 μL of the supernatant for radioactivity. An aliquot (50-200 μL) of the supernatant was analyzed by HPLC with radioactivity flow detection for profiling. Samples were also analyzed by LC/MS to characterize the radioactive peaks.
A Waters model 2690 HPLC system (Waters Corp., Milford, Mass.) with a built-in autosampler was used for analysis. Separations were accomplished on a Phenomenex Luna C18(2) column (150×2.0 mm, 5 μm) (Phenomenex, Torrance, Calif.). The sample chamber of the autosampler was maintained at 4° C., while the column was at ambient temperature of about 20° C. A variable wavelength UV detector set to monitor 250 nm and a Flo-One β Model A525 radioactivity detector described above were used for data acquisition. The HPLC mobile phase consisted of 10 mM ammonium acetate, pH 4.5 (A) and methanol (B), and was delivered at 0.2 mL/min. […]

[2] = Incubation of [14C]DCDQ in dog fecal homogenate (stability); assay type: in vitro ADME; details: 37° C. for 24 hours
Experimental: An average of 70.2% of the fecal radioactivity was extracted, while an average of 88.2% of the radioactivity was extracted from incubations of [^14C]DCDQ in blank fecal homogenate. In fecal extracts, DCDQ was major radioactive component, representing 54.4% to 96.7% of the total radioactivity. The metabolites detected in feces included hydroxy DCDQ (M2, M3 and M19), a keto DCDQ ([…]) and an uncharacterized peak (M20). The most abundant metabolite […] represented up to 16.4% of the total radioactivity in fecal extracts. The glucuronide of hydroxy DCDQ (M9) and the carbamoyl glucuronide of DCDQ (M6) were not detected in feces.

[3] = rats, previous mass balance study, oral dose; cited from earlier work
5-HT2C = target: T1, 5-HT2C (Homo sapiens, UniProt P28335); details: see WO03/091250 and US2004/0009970; cited from earlier work
T1 sequence (P28335 33-458): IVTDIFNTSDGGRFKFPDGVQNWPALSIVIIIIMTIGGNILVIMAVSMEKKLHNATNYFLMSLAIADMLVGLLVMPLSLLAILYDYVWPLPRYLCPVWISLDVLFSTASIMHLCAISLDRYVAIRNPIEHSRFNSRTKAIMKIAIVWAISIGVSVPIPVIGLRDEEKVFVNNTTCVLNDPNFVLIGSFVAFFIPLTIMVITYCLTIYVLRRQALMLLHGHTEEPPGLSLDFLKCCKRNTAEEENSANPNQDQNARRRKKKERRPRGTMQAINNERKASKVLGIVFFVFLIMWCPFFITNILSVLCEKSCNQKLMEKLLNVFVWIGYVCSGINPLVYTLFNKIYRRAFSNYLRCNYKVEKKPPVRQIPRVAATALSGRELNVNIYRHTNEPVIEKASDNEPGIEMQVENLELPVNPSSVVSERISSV

| SMILES | dosed radioactivity in feces ([1]; 0-8 hour fecal samples) | dosed radioactivity recovered in feces ([1]; first 24 hours post-dosing) | degradation in fecal homogenate [2] | dosed radioactivity recovered in urine [3] | relative abundance in fecal extracts ([1]; 8-24 hour fecal extracts) | 5-HT2C agonist activity (5-HT2C) |
| --- | --- | --- | --- | --- | --- | --- |
| c1cc2c3c(c1)[C@H]1CCC[C@H]1CN3CCNC2 [[^14C]DCDQ] | less than 0.1% | 21.1±2.1% | no obvious degradation | 64.3% |  |  |
| c1cc2c3c(c1)[C@H]1CCC[C@H]1CN3CCNC2 [DCDQ, (9aR,12aS)-4,5,6,7,9,9a,10,11,12,12a-decahydro-cyclopenta[c][1,4]diazepine[6,7,1-ij]quinoline, reference compound] |  |  |  |  | only trace amounts | potent 5-HT2C agonist |
